# In ChEMBL document CHEMBL1828590 (J Med Chem, 2011):
# How the values were obtained:
# Mus musculus [1] = assay: Toxicity in nude BALB/c mouse xenografted with human HCT116 cells assessed as body weight loss at 50 mg/kg, po QD for 21 days measured on day 12; format: organism-based, HCT-116; design: dose 50 mg/kg, route oral; details: in vivo, 504 h
# HCT-116 [2] = assay: Antitumor activity against human HCT116 cells xenografted in nude BALB/c mouse assessed as tumor growth inhibition at 50 mg/kg, po qd for 21 days measured on day 15; format: functional; details: read-out: TGI
# A2780 = assay: Antiproliferative activity against human A2780 cells after 96 hrs by celltiter 96 assay; format: functional, cell-based; details: A2780, 96 h
# Mus musculus [3] = assay: Toxicity in nude BALB/c mouse xenografted with human HCT116 cells assessed as mouse survival at 50 mg/kg, po QD for 21 days measured on day 22; format: organism-based, HCT-116; design: dose 50 mg/kg, route oral; details: in vivo, 504 h
# HCT-116 [4] = assay: Antiproliferative activity against human HCT116 cells after 96 hrs by celltiter 96 assay; format: functional, cell-based; details: HCT-116, 96 h
# [5] = Oral bioavailability in nude BALB/c mouse at 50 mg/kg; format: ADME, organism-based; details: in vivo
# HCT-116 [6] = assay: Antitumor activity against human HCT116 cells xenografted in nude BALB/c mouse assessed as tumor growth inhibition at 50 mg/kg, po qd for 21 days measured on day 18; format: functional; details: read-out: TGI
# PC-3 = assay: Antiproliferative activity against human PC3 cells after 96 hrs by celltiter 96 assay; format: functional, cell-based; details: PC-3, 96 h
# COLO 205 = assay: Antiproliferative activity against human COLO205 cells after 96 hrs by celltiter 96 assay; format: functional, cell-based; details: COLO 205, 96 h
compound,measurement,setting,value
Cc1[nH]c2ccccc2c1CCNCc1ccc(/C=C/C(=O)NO)cc1 [PANOBINOSTAT],Activity,Mus musculus [1],17.3%
same,inhibition in vivo at 50 mg/kg,HCT-116 [2],41%
same,IC50,A2780,35 nM
same,Activity,Mus musculus [3],Non-toxic
same,IC50,HCT-116 [4],48 nM
same,bioavailability,[5],4.6%
same,inhibition in vivo at 50 mg/kg,HCT-116 [6],61%
same,IC50,PC-3,24 nM
same,IC50,COLO 205,18 nM
